Experimental data from PubChem BioAssay (NCI).
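96-well plates; 48 h exposure; 5 concentrations. Endpoints by linear interpolation between flanking doses. Not reached: highest tested concentration assigned. TGI marks complete inhibition of growth.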

What was measured:
Assay in all cases: NCI-60 cell line screen, 48 h
MCF7 breast = test system: MCF7 breast
MALME-3M melanoma = test system: MALME-3M melanoma
SF-295 CNS = test system: SF-295 CNS
K-562 leukemia = test system: K-562 leukemia
HCT-15 colon = test system: HCT-15 colon
OVCAR-4 ovarian = test system: OVCAR-4 ovarian
UO-31 renal = test system: UO-31 renal
HT29 colon = test system: HT29 colon
EKVX NSCLC = test system: EKVX NSCLC
786-0 renal = test system: 786-0 renal
OVCAR-5 ovarian = test system: OVCAR-5 ovarian
MDA-N = test system: MDA-N
CCRF-CEM leukemia = test system: CCRF-CEM leukemia
SF-268 CNS = test system: SF-268 CNS
SK-MEL-2 melanoma = test system: SK-MEL-2 melanoma
SK-MEL-28 melanoma = test system: SK-MEL-28 melanoma
M14 melanoma = test system: M14 melanoma
OVCAR-3 ovarian = test system: OVCAR-3 ovarian
NCI-H226 lung = test system: NCI-H226 lung

| SMILES | TGI (MCF7 breast) | TGI (MALME-3M melanoma) | TGI (SF-295 CNS) | TGI (K-562 leukemia) | TGI (HCT-15 colon) | TGI (OVCAR-4 ovarian) | TGI (UO-31 renal) | TGI (HT29 colon) | TGI (EKVX NSCLC) | TGI (786-0 renal) | TGI (OVCAR-5 ovarian) | TGI (MDA-N) | TGI (CCRF-CEM leukemia) | TGI (SF-268 CNS) | TGI (SK-MEL-2 melanoma) | TGI (SK-MEL-28 melanoma) | TGI (M14 melanoma) | TGI (OVCAR-3 ovarian) | TGI (NCI-H226 lung) |
| --- | --- | --- | --- | --- | --- | --- | --- | --- | --- | --- | --- | --- | --- | --- | --- | --- | --- | --- | --- |
| O=C1CSC(/C=C/c2ccccc2)N1c1ccc(-c2ccc(-n3c(-c4ccccc4)nc4ccccc4c3=O)cc2)cc1 (stereo not given) | 95.9 µM | 64.4 µM | 55.7 µM | > 100 µM | 66.8 µM | 63 µM | 50.6 µM | 34 µM | 73.1 µM | 29.6 µM | 41.6 µM | 67.9 µM | 64.5 µM | > 100 µM | 38.6 µM | 53.3 µM | 35.4 µM | 84.6 µM | – |
| O=C(O)CN=C(C(=NCC(=O)O)c1ccccc1)c1ccccc1 | > 100 µM | > 100 µM | > 100 µM | > 100 µM | > 100 µM | > 100 µM | > 100 µM | – | > 100 µM | > 100 µM | > 100 µM | > 100 µM | – | > 100 µM | > 100 µM | > 100 µM | > 100 µM | > 100 µM | > 100 µM |
| CSc1c(C#N)c(O)n(-c2ccc(C)cc2)c(=O)c1C#N | > 100 µM | > 100 µM | – | > 100 µM | > 100 µM | > 100 µM | > 100 µM | > 100 µM | > 100 µM | > 100 µM | > 100 µM | > 100 µM | – | > 100 µM | > 100 µM | > 100 µM | > 100 µM | > 100 µM | > 100 µM |
| CN(C)/C(N)=N/C(N)=Nc1cccc(Cl)c1 | > 100 µM | > 100 µM | > 100 µM | > 100 µM | > 100 µM | > 100 µM | > 100 µM | > 100 µM | > 100 µM | > 100 µM | > 100 µM | > 100 µM | – | > 100 µM | > 100 µM | > 100 µM | > 100 µM | > 100 µM | 79.3 µM |
| CCOC(=O)N1CCN(c2c(C)nc(C)[nH]c2=O)CC1 | > 100 µM | > 100 µM | > 100 µM | > 100 µM | > 100 µM | > 100 µM | > 100 µM | > 100 µM | > 100 µM | > 100 µM | – | > 100 µM | > 100 µM | > 100 µM | – | > 100 µM | > 100 µM | > 100 µM | > 100 µM |
| CCC(C)C(C(=O)N/N=C1/SCC(=O)N1C)C(=O)N/N=C1/SCC(=O)N1C (stereo not given) | > 100 µM | > 100 µM | > 100 µM | > 100 µM | > 100 µM | > 100 µM | > 100 µM | > 100 µM | > 100 µM | > 100 µM | > 100 µM | > 100 µM | – | > 100 µM | > 100 µM | > 100 µM | > 100 µM | > 100 µM | > 100 µM |
